Assay results: patent US8563542B2 (Cyclacel Limited, priority 2007, dated 2013)
Like-named read-outs stand apart in the source and are kept apart here.

How the values were obtained:
[1] = molecular target: PLK1 (Homo sapiens, UniProt P53350); experiment: PLK1 protein kinase assay (CDC25C phosphorylation, [γ-32P]-ATP); format: biochemical; conditions: read-out: PLK1 IC50
[2] = molecular target: PLK2 (Homo sapiens, UniProt Q9NYY3); experiment: PLK2 inhibition (PLK selectivity); format: biochemical; conditions: relative selectivity
[3] = molecular target: PLK3 (Homo sapiens, UniProt Q9H4B4); experiment: PLK3 inhibition (PLK selectivity); format: biochemical; conditions: relative selectivity
[4] = Pharmacokinetics in fasted conscious CD-1 mice (iv and oral); format: in vivo; conditions: 1 mg/kg iv, 5-10 mg/kg oral
Procedure: Preliminary investigations of the pharmacokinetics of selected compounds were carried out in fasted conscious CD-1 mice (25-30 g). Compounds were dosed as 1 mg/kg by intravenous administration or 5-10 mg/kg by oral route. Twenty one male mice per administration route (n=3 mice per time point) received dose solution by single bolus injection in the tail vein or by oral gavage. Blood samples were collected by cardiac puncture at 5, 15, 30, 60, 120, 240 and 360 min following iv administration and at 30, 60, 120, 240, 360, 480 and 1440 min following oral administration. Blood samples were collected into tubes containing the anti-coagulant lithium heparin, mixed and placed promptly on crushed ice. Plasma was derived from whole blood by centrifugation, frozen and stored at −80° C. prior to analysis. Plasma concentrations were determined by liquid chromatography-tandem mass spectrometry in electrospray positive mode (ESI LC/MS/MS) using calibration curves prepared in the appropriate matrix. The lower level of quantification (LLOQ) in all cases was ca. 5 ng/mL. Plasma concentration-time data was processed using the computer program WinNonLin version 5.2 from which areas under the plasma concentration-time curve (AUCall) were calculated by non-compartmental analysis using Model 201 (IV-bolus Input) or Model 200 (Extravascular Input).
FIG. 1 plots the area under the curve (AUC) for plasma concentration vs time for each compound tested. The dosing vehicle across these experiments remained constant (intravenous=citrate buffer pH 3, 1 mL/kg; oral=DMA/PEG400/10 […] Tartrate buffer, pH 4 (1:3:6), 5 ml/kg). FIG. 2 represents the same data in the form of oral bioavailability (% F) for each compound.

[5] = molecular target: T1, AA (Homo sapiens, UniProt O14965); experiment: AA IC50 (Table 1; no method given); format: biochemical; conditions: Table 2, AurA IC50; class symbols; read-out: AurA IC50
T1 sequence (O14965 1-403): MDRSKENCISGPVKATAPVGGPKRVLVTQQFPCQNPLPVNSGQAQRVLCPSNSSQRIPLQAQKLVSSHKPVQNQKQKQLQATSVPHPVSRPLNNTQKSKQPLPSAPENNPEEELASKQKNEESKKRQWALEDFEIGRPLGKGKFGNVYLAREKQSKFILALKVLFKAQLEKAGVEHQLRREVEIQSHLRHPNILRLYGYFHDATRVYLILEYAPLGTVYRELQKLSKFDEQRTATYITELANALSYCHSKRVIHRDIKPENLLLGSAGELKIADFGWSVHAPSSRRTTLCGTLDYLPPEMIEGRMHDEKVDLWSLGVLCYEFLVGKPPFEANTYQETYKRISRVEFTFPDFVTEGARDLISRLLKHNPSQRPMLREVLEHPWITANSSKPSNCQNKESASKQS

[6] = Table 2, PLK1 IC50, class symbols

PLK3, sequence (Q9H4B4 whole entry): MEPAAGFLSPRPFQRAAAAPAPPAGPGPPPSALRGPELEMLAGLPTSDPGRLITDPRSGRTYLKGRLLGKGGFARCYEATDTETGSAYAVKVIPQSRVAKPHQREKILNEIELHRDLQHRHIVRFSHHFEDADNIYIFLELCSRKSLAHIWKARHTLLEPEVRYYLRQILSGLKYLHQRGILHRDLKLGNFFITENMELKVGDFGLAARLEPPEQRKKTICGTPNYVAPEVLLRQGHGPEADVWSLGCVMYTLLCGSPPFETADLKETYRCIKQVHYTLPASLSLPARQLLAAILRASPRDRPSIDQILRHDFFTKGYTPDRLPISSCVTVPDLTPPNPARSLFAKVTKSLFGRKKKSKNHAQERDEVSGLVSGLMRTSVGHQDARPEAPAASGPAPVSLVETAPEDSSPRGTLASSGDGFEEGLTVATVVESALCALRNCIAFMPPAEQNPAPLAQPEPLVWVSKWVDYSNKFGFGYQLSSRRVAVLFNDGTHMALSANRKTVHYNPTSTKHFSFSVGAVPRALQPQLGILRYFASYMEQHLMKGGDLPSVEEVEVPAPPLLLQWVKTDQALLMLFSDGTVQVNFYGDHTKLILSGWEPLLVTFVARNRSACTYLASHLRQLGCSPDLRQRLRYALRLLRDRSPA
PLK2, sequence (Q9NYY3 whole entry): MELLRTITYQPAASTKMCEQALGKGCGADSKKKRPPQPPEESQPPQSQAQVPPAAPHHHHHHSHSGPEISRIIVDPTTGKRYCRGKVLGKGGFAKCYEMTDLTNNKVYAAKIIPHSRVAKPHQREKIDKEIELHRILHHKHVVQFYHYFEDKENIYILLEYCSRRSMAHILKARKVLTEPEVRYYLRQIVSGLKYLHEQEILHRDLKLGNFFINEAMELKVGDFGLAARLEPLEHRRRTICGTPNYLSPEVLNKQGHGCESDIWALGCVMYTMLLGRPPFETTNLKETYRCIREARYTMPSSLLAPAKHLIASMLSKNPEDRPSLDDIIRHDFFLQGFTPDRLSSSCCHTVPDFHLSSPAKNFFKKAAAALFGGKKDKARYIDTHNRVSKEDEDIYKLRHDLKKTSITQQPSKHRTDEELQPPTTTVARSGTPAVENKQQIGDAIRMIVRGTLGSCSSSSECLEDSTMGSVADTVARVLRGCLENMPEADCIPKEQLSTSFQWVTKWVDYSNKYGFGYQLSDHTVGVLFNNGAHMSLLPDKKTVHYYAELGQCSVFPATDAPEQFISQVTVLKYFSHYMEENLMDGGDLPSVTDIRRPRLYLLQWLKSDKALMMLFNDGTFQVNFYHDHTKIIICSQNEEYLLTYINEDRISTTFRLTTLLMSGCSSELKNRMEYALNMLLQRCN
PLK1, sequence (P53350 whole entry): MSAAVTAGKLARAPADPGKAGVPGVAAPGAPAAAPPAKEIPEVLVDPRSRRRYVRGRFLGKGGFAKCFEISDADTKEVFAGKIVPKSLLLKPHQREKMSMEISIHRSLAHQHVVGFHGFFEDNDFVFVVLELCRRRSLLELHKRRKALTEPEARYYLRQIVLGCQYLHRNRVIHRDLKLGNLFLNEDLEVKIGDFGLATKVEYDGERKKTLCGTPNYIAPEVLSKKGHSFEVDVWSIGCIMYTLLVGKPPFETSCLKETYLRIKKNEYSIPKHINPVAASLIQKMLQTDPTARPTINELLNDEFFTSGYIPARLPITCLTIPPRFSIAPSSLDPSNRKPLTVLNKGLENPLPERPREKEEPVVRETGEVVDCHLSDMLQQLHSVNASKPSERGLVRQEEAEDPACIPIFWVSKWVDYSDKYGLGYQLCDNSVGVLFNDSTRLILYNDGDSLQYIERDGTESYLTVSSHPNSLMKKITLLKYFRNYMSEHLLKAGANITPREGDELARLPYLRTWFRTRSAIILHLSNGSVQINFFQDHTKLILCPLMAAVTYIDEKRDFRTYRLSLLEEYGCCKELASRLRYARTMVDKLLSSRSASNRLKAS

| Structure (SMILES) | IC50 [1, 6] | IC50 [5] | further results |
| --- | --- | --- | --- |
| COc1cc(C(=O)NC2CN3CCC2CC3)ccc1Nc1ncc2c(n1)N(C1CCCC1)CC1(CCC1)C(=O)N2C (racemic) [Compound 218, (±)-4-(9′-cyclopentyl-5′-methyl-6′-oxo-5′,6′,8′,9′-tetrahydrospiro[cyclobutane-1,7′-pyrimido[4,5-b][1,4]diazepine]-2′-ylamino)-3-methoxy-N-(quinuclidin-3-yl)benzamide] | < 0.1 µM | – | IC50 ([1]; Table 3): < 0.1 µM; IC50 ([1]; Table 4): < 0.1 µM; Selectivity for PLK1 versus PLK2 compared to compound [I-4] of WO 07/095188 [2]: 7 fold; Selectivity for PLK1 versus PLK2 compared to compound [I-64] of WO 07/095188 [2]: twice; Selectivity for PLK1 versus PLK2 compared to compound [I-76] of WO 07/095188 [2]: ~6 fold; Selectivity for PLK1 versus PLK3 compared to compound [I-4] of WO 07/095188 [3]: 5 fold; Selectivity for PLK1 versus PLK3 compared to compound [I-64] of WO 07/095188 [3]: 5 fold; Selectivity for PLK1 versus PLK3 compared to compound [I-76] of WO 07/095188 [3]: ~12 fold |
| COc1cc(C(=O)N[C@H]2CC[C@H](N3CCN(CC4CC4)CC3)CC2)ccc1Nc1ncc2c(n1)N(C1CCCC1)CC1(CC1)C(=O)N2C [H] | – | – | Oral bioavailability (% F) compared to compounds A-G [4]: markedly superior; Systemic exposure (plasma AUC) compared to compounds A-G [4]: markedly superior |
| COc1cc(C(=O)N[C@H]2CC[C@H](N3CCN(CC4CC4)CC3)CC2)ccc1Nc1ncc2c(n1)N(C1CCCC1)CCC(=O)N2C [I] | – | – | Oral bioavailability (% F) compared to compounds A-G [4]: markedly superior; Systemic exposure (plasma AUC) compared to compounds A-G [4]: markedly superior |
| CN1C(=O)CCN(C2CCCC2)c2nc(Nc3ccc(C(=O)N4CCOCC4)cc3)ncc21 [compound 293, 9-Cyclopentyl-5-methyl-2-[4-(morpholine-4-carbonyl)-phenylamino]-5,7,8,9-tetrahydro-pyrimido[4,5-b][1,4]diazepin-6-one] | < 10 µM | < 100 nM | – |
| CN1C(=O)CCN(C2CCCC2)c2nc(Nc3ccc4c(c3)NC(=O)CO4)ncc21 [compound 295, 9-Cyclopentyl-5-methyl-2-(3-oxo-3,4-dihydro-2H-benzo[1,4]oxazin-6-ylamino)-5,7,8,9-tetrahydro-pyrimido[4,5-13][1,4]diazepin-6-one] | < 10 µM | < 100 nM | – |
| CN1C(=O)CCN(C2CCCC2)c2nc(Nc3ccc(C(=O)N4CCOCC4)cc3)ncc21 [compound 297, 9-Cyclopentyl-5-methyl-2-[4-(morpholine-4-carbonyl)-phenylamino]-5,7,8,9-tetrahydro-pyrimido[4,5-b][1,4]diazepin-6-one] | < 10 µM | < 100 nM | – |
| CN1C(=O)CCN(C2CCCC2)c2nc(Nc3ccc4c(c3)NC(=O)CO4)ncc21 [compound 299, 9-Cyclopentyl-5-methyl-2-(3-oxo-3,4-dihydro-2H-benzo[1,4]oxazin-6-ylarnino)-5,7,8,9-tetrahydro-pyrimido[4,5-b][1,4]diazepin-6-one] | < 10 µM | < 100 nM | – |
| CN1C(=O)CCN(C2CCCC2)c2nc(Nc3ccc(S(=O)(=O)N(C)C)cc3)ncc21 [compound 300, 4-(9-Cyclopentyl-5-methyl-6-oxo-6,7,8,9-tetrahydro-5H-pyrimido[4,5-b][1,4]diazepin-2-ylamino)-N,N-dimethyl-benzenesulfonamide] | < 10 µM | < 100 nM | – |
| CC(=O)Nc1ccc(Nc2ncc3c(n2)N(C2CCCC2)CCC(=O)N3C)cc1Cl [compound 324, N-[2-Chloro-4-(9-cyclopentyl-5-methyl-6-oxo-6,7,8,9-tetrahydro-5H-pyrimido[4,5-b][1,4]diazepin-2-ylamino)-phenyl]-acetamide] | < 10 µM | < 1000 nM | – |

The next lines start with results.

| IC50 [1, 6] | IC50 [5] | Structure (SMILES) | further results |
| --- | --- | --- | --- |
| < 10 µM | < 100 nM | CC(=O)Nc1ccc(Nc2ncc3c(n2)N(C2CCCC2)CCC(=O)N3C)cc1C [compound 285, N-[4-(9-Cyclopentyl-5-methyl-6-oxo-6,7,8,9-tetrahydro-5H-pyrimido[4,5-b][1,4]diazepin-2-ylamino)-2-methyl-phenyl]-acetamide] | – |
| < 10 µM | < 100 nM | Cc1cc(Nc2ncc3c(n2)N(C2CCCC2)CCC(=O)N3C)ccc1NC(=O)C(C)(C)C [compound 287, N-[4-(9-Cyclopentyl-5-methyl-6-oxo-6,7,8,9-tetrahydro-5H-pyrimido[4,5-b][1,4]diazepin-2-ylamino)-2-methyl-phenyl]-2,2-dimethyl-propionamide] | – |
| < 1 µM | < 100 nM | CN1C(=O)CCN(C2CCCC2)c2nc(Nc3ccc4c(c3)C=CS4(=O)=O)ncc21 [compound 289, 9-Cyclopentyl-2-(1,1-dioxo-1H-1lambda*6*- benzo[b]thiophen-5-ylamino)-5-methyl-5,7,8,9-tetrahydro-pyrimido[4,5-b][1,4]diazepin-6-one] | – |
| < 10 µM | < 100 nM | Cc1ccc(N2CCC(=O)N(C)c3cnc(Nc4ccc5c(c4)CS(=O)(=O)C5)nc32)cc1 [compound 290, 2-(2,2-Dioxo-2,3-dihydro-1H-2lambda*6*- benzo[c]thiophen-5-ylamino)-5-methyl-9-p-tolyl-5,7,8,9-tetrahydro-pyrimido[4,5-b][1,4]diazepin-6-one] | – |
| < 10 µM | < 100 nM | Cc1ccc(N2CCC(=O)N(C)c3cnc(Nc4ccc(NC(=O)C5CC5)c(C)c4)nc32)cc1 [compound 291, Cyclopropanecarboxylic acid [2-methyl-4-(5-methyl-6-oxo-9-p-tolyl-6,7,8,9-tetrahydro-5H-pyrimido[4,5-b][1,4]diazepin-2-ylamino)-phenyl]-amide] | – |
| < 1 µM | < 100 nM | CN1C(=O)CCN(C2CCCC2)c2nc(Nc3ccc4sc(C(=O)O)cc4c3)ncc21 [compound 292, 5-(9-Cyclopentyl-5-methyl-6-oxo-6,7,8,9-tetrahydro-5H-pyrimido[4,5-b][1,4]diazepin-2-ylamino)-benzo[b]thiophene-2-carboxylic acid] | – |
| < 1 µM | < 1000 nM | CN1C(=O)CCN(C2CCCC2)c2nc(Nc3ccc4c(c3)OCC(=O)N4)ncc21 [compound 294, 9-Cyclopentyl-5-methyl-2-(3-oxo-3,4-dihydro-2H-benzo[1,4]oxazin-7-ylamino)-5,7,8,9-tetrahydro-pyrimido[4,5-b][1,4]diazepin-6-one] | – |
| < 1 µM | < 100 nM | CN1C(=O)CCN(C2CCCC2)c2nc(Nc3ccc4sc(C(=O)O)cc4c3)ncc21 [compound 296] | – |
| < 1 µM | < 1000 nM | CN1C(=O)CCN(C2CCCC2)c2nc(Nc3ccc4c(c3)OCC(=O)N4)ncc21 [compound 298, 9-Cyclopentyl-5-methyl-2-(3-oxo-3,4-dihydro-2H-benzo[1,4]oxazin-7-ylamino)-5,7,8,9-tetrahydro-pyrimido[4,5-b][1,4]diazepin-6-one] | – |
| < 1 µM | < 10000 nM | CN1CCC(NC(=O)c2ccc(Nc3ncc4c(n3)N(C3CCCC3)CC3(CC3)C(=O)N4C)cc2)CC1 [compound 349, 4-(9-Cyclopentyl-5-methyl-6-oxo-6,7,8,9-tetrahydro-5H-spiro[pyrimido[4,5-b][1,4]diazepin-3,1'-cyclopropane]-2-ylamino)-N-(1-methyl-piperidin-4-yl)-benzamide] | – |
